Laboratory results as given in patent US11458189B2, “Cytoprotective drugs” (BALMES TRANSPLANTATION, priority 2017, dated 2022).
Starred links: 1 amine or outer side, 2 acyl side, 3 side chain; linkers in the order of their positions; H or OH if unused. Positions of bridges follow the written chain, without caps; N, C: chain ends. Non-standard residues stand in square brackets, D forms with d. Residues, ends and D or L forms follow the SMILES beside them. ξ: configuration not given here. *: point of attachment. hTyr(3S-OH,4S-OH,3'-OSO3H) = N[C@H](C(=O)O)[C@H](O)[C@@H](O)c1ccc(O)c(OS(=O)(=O)O)c1; pTerphenylCO(4''-OnC5H11) = CCCCCOc1ccc(-c2ccc(-c3ccc(C(=O)*)cc3)cc2)cc1; Orn(4R-OH,5R-OH) = O=C([C@H](C[C@@H](O)[C@@H](O)N[*:3])N[*:1])[*:2]; hTyr(3S-OH,4S-OH) = N[C@H](C(=O)O)[C@H](O)[C@@H](O)c1ccc(O)cc1; Pro(3S-OH,4S-Me) = C[C@H]1CN[C@H](C(=O)O)[C@H]1O; X1 = CCCCCOc1ccc(-c2cc(-c3ccc(C(=O)*)cc3)no2)cc1; Gln(3R-OH) = NC(=O)C[C@@H](O)[C@H](N)C(=O)O; ξPro(4R-OH) = O=C(O)C1C[C@@H](O)CN1; Hyp = O=C(O)[C@@H]1C[C@@H](O)CN1

System: Sprague Dawley rats
Test: Survival in acute renal failure model (unilateral renal ischemia-reperfusion with contralateral nephrectomy)
Assay type: in vivo, rat
Conditions: up to 7 days after reperfusion, control group 29%
Procedure: The protocol is similar to the one described by Narayan P et al, Am J Physiol Renal Physiol, 311(2):F352-61, 2016 and was approved by an ethics committee. In summary, general anesthesia is induced in male Sprague Dawley rats (250-300 g) using sodium pentobarbital (60 mg/kg, ip) instead of ketamine/xylazine in the protocol described by Narayan P et al, Am J Physiol Renal Physiol, 311 (2): F352-61, 2016. A skin incision is made on the dorsal surface and the left kidney is exposed by incisions on the flank. The left renal pedicle is then isolated and clamped for 60 minutes using atraumatic vascular clamps. The kidneys are replaced in the abdominal cavity to maintain temperature and the incision is covered with gauze soaked in 0.9% saline. After the ischemia time (60 minutes), the clamps are released to begin reperfusion. Reperfusion is monitored (kidney color change) for 1 to 2 minutes and physiological saline (1 mL) is administered to prevent dehydration. Next, a right kidney nephrectomy is performed and the incisions are closed with sutures. The animals are kept at approximately 37° C. using a thermoregulated system during the operation. Buprenorphine (0.2 mg/kg sc) is administered before the animals are returned to their cages and once a day until 4 days after reperfusion. […]
The compounds Micafungin (0.25 mg/kg), Anidulafungin (0.35 mg/kg) or the combination of the compounds Micafungin (0.25 mg/kg) and Allopurinol (3 mg/kg) are administered solubilized in physiological saline as a single intravenous injection into the tail vein 60 (±15) minutes before the onset of ischemia. The volume of administration of the compounds is determined on the basis of the body weight (2 mL/kg) of each animal. […]
For each experiment the curve of the number of surviving animals versus the number of days post-ischemia-reperfusion (Kaplan-Meier curve) is shown. The x-axis is graduated from the first day =0 to the seventh day =6 The y-axis is graduated from 0% to 100% of the initial population of the analyzed group. […]

Row | SMILES | Surviving animals at end of Kaplan-Meier curve (% of initial population of the group) (Anidulafungin 0.35 mg/kg single iv injection 60 min before ischemia) [%] | Surviving animals at end of Kaplan-Meier curve (% of initial population of the group) (Micafungin 0.25 mg/kg single iv injection 60 min before ischemia) [%]
1 | CCCCCOc1ccc(-c2ccc(-c3ccc(C(=O)N[C@H]4C[C@@H](O)[C@@H](O)NC(=O)[C@@H]5[C@@H](O)[C@@H](C)CN5C(=O)[C@H]([C@@H](C)O)NC(=O)[C@H]([C@H](O)[C@@H](O)c5ccc(O)cc5)NC(=O)C5C[C@@H](O)CN5C(=O)[C@H]([C@@H](C)O)NC4=O)cc3)cc2)cc1 (stereo partly drawn) [Anidulafungin] ({pTerphenylCO(4''-OnC5H11)}-[Orn(4R-OH,5R-OH)]T[ξPro(4R-OH)][hTyr(3S-OH,4S-OH)]T[Pro(3S-OH,4S-Me)]; lactam 1-C) | 75 | –
2 | CCCCCOc1ccc(-c2cc(-c3ccc(C(=O)N[C@H]4C[C@@H](O)[C@@H](O)NC(=O)[C@@H]5[C@@H](O)[C@@H](C)CN5C(=O)[C@H]([C@H](O)CC(N)=O)NC(=O)[C@H]([C@H](O)[C@@H](O)c5ccc(O)c(OS(=O)(=O)O)c5)NC(=O)[C@@H]5C[C@@H](O)CN5C(=O)[C@H]([C@@H](C)O)NC4=O)cc3)no2)cc1 [Micafungin, {5-[(1S,2S)-2-[(3S,6S,9S,11R,15S,18S,20R,21R,24S,25S,26S)-3-[(1R)-2-carbamoyl-1-hydroxyethyl]-11,20,21,25-tetrahydroxy-15-[(1R)-1-hydroxyethyl]-26-methyl-2,5,8,14,17,23-hexaoxo-18-[(4-{5-[4-(pentyloxy)phenyl]-1,2-oxazol-3-yl}benzene)amido]-1,4,7,13,16,22-hexaazatricyclo[22.3.0.0]heptacosan-6-yl]-1,2-dihydroxyethyl]-2-hydroxyphenyl}oxidanesulfonic acid] (X1-[Orn(4R-OH,5R-OH)]T[Hyp][hTyr(3S-OH,4S-OH,3'-OSO3H)][Gln(3R-OH)][Pro(3S-OH,4S-Me)]; lactam 1-C) | – | 67
